ChEMBL document CHEMBL3425509, “Design, synthesis, and biological evaluation of benzofuran- and 2,3-dihydrobenzofuran-2-carboxylic acid N-(substituted)phenylamide derivatives as anticancer agents and inhibitors of NF-κB” (Bioorg Med Chem Lett, 2015)

Key:
[1] = system: ACHN; experiment: Cytotoxicity against human ACHN cells assessed as cell viability at 10 uM after 72 hrs by sulforhodamine B assay relative to control; type: functional; settings: read-out: Activity
[2] = Cytotoxicity against human HCT15 cells assessed as cell viability at 10 uM after 72 hrs by sulforhodamine B assay relative to control; type: functional; settings: HCT-15, 72 h, read-out: Activity
[3] = system: MDA-MB-231; experiment: Cytotoxicity against human MDA-MB-231 cells assessed as cell viability at 10 uM after 72 hrs by sulforhodamine B assay relative to control; type: functional; settings: MDA-MB-231, 72 h, read-out: Activity
[4] = system: NCI-H23; experiment: Cytotoxicity against human NCI-H23 cells assessed as cell viability at 10 uM after 72 hrs by sulforhodamine B assay relative to control; type: functional; settings: NCI-H23, 72 h, read-out: Activity
[5] = Cytotoxicity against human NUGC3 cells assessed as cell viability at 10 uM after 72 hrs by sulforhodamine B assay relative to control; type: functional; settings: NUGC-3, 72 h, read-out: Activity
[6] = Cytotoxicity against human PC3 cells assessed as cell viability at 10 uM after 72 hrs by sulforhodamine B assay relative to control; type: functional; settings: PC-3, 72 h, read-out: Activity
[7] = target: Nuclear factor NF-kappa-B complex (Homo sapiens) (UniProt Q00653+P19838+Q04206); experiment: Inhibition of NF-kappaB (unknown origin) transcriptional activity in LPS-induced mouse RAW264.7 cells at 30 uM after 1 hr by secreted alkaline phosphatase assay relative to control; type: cell-based
Nuclear factor NF-kappa-B complex (Homo sapiens), sequence (P19838 whole entry, looked up): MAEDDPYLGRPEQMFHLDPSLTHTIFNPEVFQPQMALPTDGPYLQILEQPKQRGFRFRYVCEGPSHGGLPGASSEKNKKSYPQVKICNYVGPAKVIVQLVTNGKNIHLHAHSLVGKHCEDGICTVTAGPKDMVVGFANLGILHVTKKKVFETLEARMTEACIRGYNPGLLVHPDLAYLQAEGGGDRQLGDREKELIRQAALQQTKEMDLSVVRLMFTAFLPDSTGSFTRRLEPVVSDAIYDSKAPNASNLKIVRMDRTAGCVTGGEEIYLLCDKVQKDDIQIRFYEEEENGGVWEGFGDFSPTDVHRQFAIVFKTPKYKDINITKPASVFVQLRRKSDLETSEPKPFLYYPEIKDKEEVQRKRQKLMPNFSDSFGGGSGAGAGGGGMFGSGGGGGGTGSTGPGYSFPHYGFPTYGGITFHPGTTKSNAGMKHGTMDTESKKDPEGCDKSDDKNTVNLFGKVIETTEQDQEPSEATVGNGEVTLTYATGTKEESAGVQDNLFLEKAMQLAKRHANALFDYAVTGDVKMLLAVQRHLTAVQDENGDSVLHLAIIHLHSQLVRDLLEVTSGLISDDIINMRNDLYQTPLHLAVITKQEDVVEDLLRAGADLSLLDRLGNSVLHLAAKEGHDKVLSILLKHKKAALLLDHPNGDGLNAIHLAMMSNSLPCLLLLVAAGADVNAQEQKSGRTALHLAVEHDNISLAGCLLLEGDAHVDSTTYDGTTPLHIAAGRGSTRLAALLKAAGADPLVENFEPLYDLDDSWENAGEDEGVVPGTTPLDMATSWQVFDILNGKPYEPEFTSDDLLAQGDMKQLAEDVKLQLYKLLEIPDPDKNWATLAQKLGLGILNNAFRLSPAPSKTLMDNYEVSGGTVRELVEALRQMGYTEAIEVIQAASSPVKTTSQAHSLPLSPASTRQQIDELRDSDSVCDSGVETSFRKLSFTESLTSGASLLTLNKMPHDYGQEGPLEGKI
Nuclear factor NF-kappa-B complex (Homo sapiens), sequence (Q00653 whole entry, looked up): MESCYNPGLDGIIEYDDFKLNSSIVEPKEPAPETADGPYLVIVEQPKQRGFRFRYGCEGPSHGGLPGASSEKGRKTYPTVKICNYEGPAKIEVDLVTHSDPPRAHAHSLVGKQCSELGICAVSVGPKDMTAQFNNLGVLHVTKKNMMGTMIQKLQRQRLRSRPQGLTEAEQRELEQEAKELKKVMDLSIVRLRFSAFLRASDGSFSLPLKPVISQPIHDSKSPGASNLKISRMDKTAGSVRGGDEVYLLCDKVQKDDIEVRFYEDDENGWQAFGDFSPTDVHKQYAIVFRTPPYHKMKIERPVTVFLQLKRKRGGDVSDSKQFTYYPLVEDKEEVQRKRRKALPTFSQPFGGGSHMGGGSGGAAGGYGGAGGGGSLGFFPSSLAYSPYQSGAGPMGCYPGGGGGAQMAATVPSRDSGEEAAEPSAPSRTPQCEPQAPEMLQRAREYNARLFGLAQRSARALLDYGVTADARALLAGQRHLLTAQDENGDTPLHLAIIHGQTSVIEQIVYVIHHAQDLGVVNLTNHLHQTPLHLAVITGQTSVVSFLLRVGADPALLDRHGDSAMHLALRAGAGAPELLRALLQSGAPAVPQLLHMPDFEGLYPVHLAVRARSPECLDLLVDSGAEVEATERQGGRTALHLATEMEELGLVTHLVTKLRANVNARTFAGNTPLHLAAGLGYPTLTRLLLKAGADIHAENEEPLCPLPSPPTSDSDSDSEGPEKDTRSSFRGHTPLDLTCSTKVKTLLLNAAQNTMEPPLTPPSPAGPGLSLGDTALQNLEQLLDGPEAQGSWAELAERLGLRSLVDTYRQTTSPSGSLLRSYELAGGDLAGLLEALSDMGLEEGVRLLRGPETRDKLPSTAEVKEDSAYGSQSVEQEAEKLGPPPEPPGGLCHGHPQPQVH
Nuclear factor NF-kappa-B complex (Homo sapiens), sequence (Q04206 whole entry, looked up): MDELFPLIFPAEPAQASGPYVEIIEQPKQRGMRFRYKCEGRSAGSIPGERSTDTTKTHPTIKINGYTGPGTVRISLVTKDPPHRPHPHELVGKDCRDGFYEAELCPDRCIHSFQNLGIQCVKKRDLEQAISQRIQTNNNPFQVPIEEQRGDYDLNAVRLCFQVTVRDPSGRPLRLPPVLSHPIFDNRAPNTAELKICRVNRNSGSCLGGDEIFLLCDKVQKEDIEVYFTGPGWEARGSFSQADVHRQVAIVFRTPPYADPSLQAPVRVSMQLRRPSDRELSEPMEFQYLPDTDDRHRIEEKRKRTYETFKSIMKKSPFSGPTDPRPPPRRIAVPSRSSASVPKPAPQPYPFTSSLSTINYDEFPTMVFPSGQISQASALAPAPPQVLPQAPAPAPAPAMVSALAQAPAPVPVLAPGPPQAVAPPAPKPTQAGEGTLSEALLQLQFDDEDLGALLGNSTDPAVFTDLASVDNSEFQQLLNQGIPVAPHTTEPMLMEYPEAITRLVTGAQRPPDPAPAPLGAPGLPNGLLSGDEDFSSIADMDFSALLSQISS

Row | SMILES | inhibition [7] | viability at 10 µM [1] | viability at 10 µM [2] | viability at 10 µM [3] | viability at 10 µM [4] | viability at 10 µM [5] | viability at 10 µM [6]
1 | COc1cc(NC(=O)c2cc3ccccc3o2)cc(OC)c1 | 63% | 102% | 95% | 106% | 102% | 90% | 92%
2 | Cc1ccc(NC(=O)C2Cc3ccccc3O2)cc1C (configuration not stated) | 44.5% | 137% | 97% | 86% | 92% | 99% | 94%
3 | O=C(Nc1cccc([N+](=O)[O-])c1)C1Cc2ccccc2O1 (configuration not stated) | 40% | 109% | 83% | 92% | 95% | 83% | 77%
4 | O=C(Nc1cc(Cl)ccc1Cl)C1Cc2ccccc2O1 (configuration not stated) | 42.5% | 101% | 77% | 74% | 90% | 105% | 84%
5 | Cc1ccc(C)c(NC(=O)C2Cc3ccccc3O2)c1 (configuration not stated) | 22% | 129% | 88% | 88% | 103% | 81% | 55%
6 | O=C(Nc1ccccc1C(F)(F)F)C1Cc2ccccc2O1 (configuration not stated) | 44.5% | 136% | 98% | 98% | 102% | 103% | 74%
7 | COc1ccc(NC(=O)C2Cc3ccccc3O2)cc1 (configuration not stated) | 22.5% | 140% | 89% | 94% | 102% | 108% | 81%
8 | Cc1ccc(NC(=O)C2Cc3ccccc3O2)cc1 (configuration not stated) | 34.5% | 134% | 100% | 96% | 105% | 112% | 80%
9 | O=C(Nc1cc(Cl)cc(Cl)c1)C1Cc2ccccc2O1 (configuration not stated) | 75% | 89% | 98% | 89% | 99% | 114% | 89%
10 | COc1ccc(OC)c(NC(=O)C2Cc3ccccc3O2)c1 (configuration not stated) | 39.5% | 126% | 97% | 89% | 99% | 95% | 81%
11 | O=C(Nc1cccc(Cl)c1)C1Cc2ccccc2O1 (configuration not stated) | 43.5% | 134% | 97% | 80% | 101% | 101% | 91%
12 | O=C(Nc1ccc(C(F)(F)F)cc1)C1Cc2ccccc2O1 (configuration not stated) | 41% | 124% | 96% | 82% | 97% | 99% | 60%
13 | O=C(Nc1ccccc1Cl)C1Cc2ccccc2O1 (configuration not stated) | 37.5% | 87% | 102% | 81% | 104% | 104% | 96%
14 | COc1ccc(NC(=O)C2Cc3ccccc3O2)cc1OC (configuration not stated) | 21.5% | 127% | 92% | 71% | 101% | 87% | 38%
15 | O=C(Nc1ccc(Cl)cc1)C1Cc2ccccc2O1 (configuration not stated) | 41.5% | 143% | 55% | 100% | 89% | 100% | 71%
16 | O=C(Nc1ccccc1[N+](=O)[O-])C1Cc2ccccc2O1 (configuration not stated) | 28.5% | 108% | 94% | 92% | 97% | 89% | 89%
17 | COc1cccc(NC(=O)C2Cc3ccccc3O2)c1 (configuration not stated) | 16.5% | 135% | 99% | 80% | 102% | 106% | 89%
18 | O=C(Nc1ccccc1)C1Cc2ccccc2O1 (configuration not stated) | 10% | 95% | 88% | 101% | 93% | 87% | 92%
19 | O=C(Nc1cc(C(F)(F)F)ccc1C(F)(F)F)c1cc2ccccc2o1 | 28.5% | 84% | 88% | 98% | 77% | 89% | 95%
20 | Cc1ccccc1NC(=O)C1Cc2ccccc2O1 (configuration not stated) | 38% | 108% | 88% | 103% | 91% | 91% | 87%
21 | COc1ccc(NC(=O)c2cc3ccccc3o2)cc1OC | 40% | 99% | 92% | 81% | 102% | 90% | 98%

The next lines start with results.

Row | inhibition [7] | SMILES | viability at 10 µM [1] | viability at 10 µM [2] | viability at 10 µM [3] | viability at 10 µM [4] | viability at 10 µM [5] | viability at 10 µM [6]
22 | 47.5% | O=C(Nc1cccc(C(F)(F)F)c1)c1cc2ccccc2o1 | 83% | 75% | 105% | 92% | 79% | 96%
23 | 41% | O=C(Nc1cccc(O)c1)c1cc2ccccc2o1 | 84% | 85% | 100% | 95% | 87% | 90%
24 | 23% | O=C(Nc1ccccc1O)c1cc2ccccc2o1 | 84% | 58% | 85% | 86% | 84% | 68%
25 | 23% | COc1ccc(OC)c(NC(=O)c2cc3ccccc3o2)c1 | 102% | 97% | 101% | 103% | 91% | 106%
26 | 34.5% | O=C(Nc1ccc([N+](=O)[O-])cc1)c1cc2ccccc2o1 | 94% | 84% | 111% | 101% | 95% | 87%
27 | 57.5% | O=C(Nc1ccccc1C(F)(F)F)c1cc2ccccc2o1 | 98% | 99% | 114% | 100% | 93% | 95%
28 | 11% | O=C(Nc1cccc([N+](=O)[O-])c1)c1cc2ccccc2o1 | 93% | 88% | 111% | 99% | 98% | 95%
29 | 46% | Cc1ccccc1NC(=O)c1cc2ccccc2o1 | 106% | 93% | 101% | 89% | 98% | 100%
30 | 34.5% | Cc1ccc(NC(=O)c2cc3ccccc3o2)cc1 | 96% | 82% | 105% | 104% | 95% | 103%
31 | 34.5% | COc1cccc(NC(=O)c2cc3ccccc3o2)c1 | 105% | 87% | 127% | 105% | 99% | 106%
32 | 44% | O=C(Nc1ccccc1)c1cc2ccccc2o1 | 89% | 75% | 94% | 98% | 97% | 83%
33 | 70% | Cc1cc(C)cc(NC(=O)c2cc3ccccc3o2)c1 | 101% | 79% | 94% | 99% | 93% | 94%
34 | 34.5% | O=C(Nc1ccc(C(F)(F)F)cc1)c1cc2ccccc2o1 | 79% | 80% | 89% | 89% | 75% | 74%
35 | 36.5% | O=C(Nc1cc(Cl)ccc1Cl)c1cc2ccccc2o1 | 96% | 81% | 101% | 96% | 89% | 97%
36 | 39.5% | COc1ccc(NC(=O)c2cc3ccccc3o2)cc1 | 109% | 87% | 110% | 101% | 102% | 111%
